# Reference: patent US6608086B2, “Dihydropyridines and new uses thereof” (Synaptic Pharmaceutical Corporation, priority 1993, dated 2003)
# Counter-ions that a name gives are not always drawn. Like-named read-outs stand apart in the source and are kept apart here.
# Key:
# [1] = target: T1, α2C receptor (Homo sapiens, UniProt P18825); assay: Competition binding, [3H]rauwolscine, human α2C receptor; conditions: for pKi alpha-2 2c: LM(tk−) cells
# T1 construct: host or cells: LM(tk-) cells, line L-α2C
# T1 sequence (P18825 1-462): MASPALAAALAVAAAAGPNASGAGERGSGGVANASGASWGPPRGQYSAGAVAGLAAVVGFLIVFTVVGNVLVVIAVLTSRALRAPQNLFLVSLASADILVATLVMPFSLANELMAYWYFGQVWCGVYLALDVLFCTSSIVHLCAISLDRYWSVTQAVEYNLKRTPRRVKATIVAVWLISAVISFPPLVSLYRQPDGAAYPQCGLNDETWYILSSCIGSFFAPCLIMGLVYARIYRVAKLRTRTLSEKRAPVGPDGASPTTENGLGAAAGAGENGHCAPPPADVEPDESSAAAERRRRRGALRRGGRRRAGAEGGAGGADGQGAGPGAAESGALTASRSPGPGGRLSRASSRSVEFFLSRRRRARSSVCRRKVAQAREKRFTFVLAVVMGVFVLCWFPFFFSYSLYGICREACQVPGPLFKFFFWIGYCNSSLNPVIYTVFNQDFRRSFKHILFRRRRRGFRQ
# In short: (§1)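 Filter-bound [3H]rauwolscine (0.5 nM) was measured after equilibrium competition with test antagonists on lysates of LM(tk−) cells stably transfected with each human α2 subtype. Buffer: 25 mM glycylglycine, pH 7.6 at room temperature; 10 μM phentolamine gave nonspecific binding.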
# [2] = target: T2, α2A receptor (Homo sapiens, UniProt P08913); assay: Competition binding, [3H]rauwolscine, human α2A receptor; conditions: for pKi alpha-2 2a: LM(tk−) cells
# T2 construct: host or cells: LM(tk-) cells, line L-α2A
# T2 sequence (P08913 1-465): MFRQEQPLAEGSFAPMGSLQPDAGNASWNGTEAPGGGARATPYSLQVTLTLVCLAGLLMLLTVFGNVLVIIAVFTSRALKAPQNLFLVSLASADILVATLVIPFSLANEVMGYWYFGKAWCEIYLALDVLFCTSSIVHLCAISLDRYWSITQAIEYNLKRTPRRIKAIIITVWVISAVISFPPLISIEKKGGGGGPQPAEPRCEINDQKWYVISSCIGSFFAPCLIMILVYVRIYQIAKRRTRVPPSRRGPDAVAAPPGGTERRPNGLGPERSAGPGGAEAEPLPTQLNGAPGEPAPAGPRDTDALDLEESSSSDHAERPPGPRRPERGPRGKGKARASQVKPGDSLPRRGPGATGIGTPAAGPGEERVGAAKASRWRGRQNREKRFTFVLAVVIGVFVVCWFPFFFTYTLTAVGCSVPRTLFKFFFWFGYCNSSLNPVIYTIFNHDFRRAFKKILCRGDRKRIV
# In short: as §1
# [3] = target: T3, α1A Human Adrenergic Receptor (Homo sapiens, UniProt P25100); assay: Radioligand binding, [3H]prazosin, cloned human α1A adrenergic receptor; conditions: for pKi alpha-1 1a: LM(tk−) cell membranes
# T3 construct: The entire coding region of α1A (1719 bp); expressed in transfected cells
# T3 sequence (P25100 1-572): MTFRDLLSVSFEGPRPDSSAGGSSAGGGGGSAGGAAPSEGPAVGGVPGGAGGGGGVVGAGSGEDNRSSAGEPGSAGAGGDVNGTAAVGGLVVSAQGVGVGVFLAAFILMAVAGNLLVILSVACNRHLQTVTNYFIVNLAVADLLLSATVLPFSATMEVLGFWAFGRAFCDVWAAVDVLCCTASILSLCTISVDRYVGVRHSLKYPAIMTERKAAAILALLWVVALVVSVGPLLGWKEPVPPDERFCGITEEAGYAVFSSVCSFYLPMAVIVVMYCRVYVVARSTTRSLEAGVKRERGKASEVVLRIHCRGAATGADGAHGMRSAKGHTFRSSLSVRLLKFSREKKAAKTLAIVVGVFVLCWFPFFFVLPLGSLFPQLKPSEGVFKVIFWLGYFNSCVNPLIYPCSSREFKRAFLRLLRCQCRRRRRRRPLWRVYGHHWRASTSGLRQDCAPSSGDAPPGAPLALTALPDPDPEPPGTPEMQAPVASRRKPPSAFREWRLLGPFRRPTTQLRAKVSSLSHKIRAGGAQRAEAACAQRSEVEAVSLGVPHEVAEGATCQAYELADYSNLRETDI
# In short: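 Membranes from LM(tk−) cells transfected with human α1A were incubated with 0.5 nM [3H]prazosin in 50 mM Tris-HCl, 1 mM MgCl2, 0.1% ascorbic acid, pH 7.5, for 20 min at 37° C. Nonspecific binding was defined with 10 μM phentolamine. Bound ligand was separated by GF/B filtration.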
# [4] = [3H]rauwolscine, human receptor, LM(tk-) cell lysates, mean, read-out: PKi alpha-2 2c (converted)
# [5] = [3H]rauwolscine, human receptor, LM(tk-) cell lysates, mean, read-out: PKi alpha-2 2a (converted)
# [6] = PKi alpha-1 1a, [3H]prazosin, cloned human receptor, LM(tk-) cell membranes, mean
# [7] = [3H]prazosin, cloned human receptor, LM(tk-) cell membranes, mean, read-out: PKi alpha-1 1a (converted)
# [8] = [3H]rauwolscine, human α2C receptor
# [9] = [3H]rauwolscine, human α2A receptor
# [10] = [3H]prazosin, cloned human α1A receptor
Compound,"Ki [2, 5]",Ki ([1]; PKi alpha-2 2c),Ki [2],Ki ([3]; PKi alpha-1 1a),also measured
"CCC1=C(C(=O)NC)C(c2ccc([N+](=O)[O-])cc2)C(C(=O)NCCCN2CCC(c3ccccc3)(c3ccccc3)CC2)=C(CCCCOC)N1 (stereo not drawn) [Example 173, 6-Ethyl-1,4-dihydro-2-(4-methoxybutyl)-5-(N-methyl)carboxamido-4-(4-nitrophenyl)-3-{N-[3-(4,4-diphenylpiperidin-1-yl)propyl]}carboxamidopyridine]",0.269 µM,,,,"Ki [1, 4]: 1.48 µM; Ki [3, 6]: 0.741 µM"
CCC1=C(C(=O)OCCO)C(c2ccc([N+](=O)[O-])cc2)C(C(=O)NCCCN2CCC(c3ccccc3)(c3ccccc3)CC2)=C(COC)N1 (stereo not drawn) [Example 246],,,,,"Ki ([1]; [3H]rauwolscine, human α2C receptor, LM(tk-) cells, read-out: PKi alpha-2 2c (converted)): 2.4 µM; Ki ([2]; [3H]rauwolscine, human α2A receptor, LM(tk-) cells, read-out: PKi alpha-2 2a (converted)): 0.676 µM; Ki ([3]; PKi alpha-1 1a, [3H]prazosin, cloned human α1A receptor, LM(tk-) cell membranes): 0.316 µM"
"CCOC(=O)C1(c2ccccc2)CCN(CCCNC(=O)C2=C(COCCN)NC(CC)=C(C(=O)O)C2c2ccc([N+](=O)[O-])cc2)CC1 (stereo not drawn) [Example 196, 2-[(2-Aminoethoxy)methyl]-3-{N-[3-(4-ethoxycarbonyl-4-phenylpiperidin-1-yl)propyl]}carboxamido-1,4-dihydro-6-ethyl-4-(4-nitrophenyl)pyridine-5-carboxylic Acid]",8.32 µM,,,,"Ki [1, 4]: 3.09 µM; Ki [3, 7]: 6.76 µM"
"CCC1=C(C(N)=O)C(c2ccc([N+](=O)[O-])cc2)C(C(=O)NC2CCN(CCc3c[nH]c4ccccc34)CC2)=CN1CC (stereo not drawn) [Example 122, 5-Carboxamido-1,4-dihydro-3-(N-{1-[2-(3-indolyl)ethyl]piperidin-4-yl}) carboxamido-1,6-diethyl-4-(4-nitrophenyl)pyridine]",,,,,"pKi alpha-2 2c [1, 8]: 6.53; pKi alpha-2 2a [2, 9]: 6.38; pKi alpha-1 1a [3, 10]: 6.62"
"COC(=O)C1=C(C)NC(CCCCN)=C(C(=O)NCCCN2CCC(c3ccccc3)(c3ccccc3)CC2)C1c1ccc([N+](=O)[O-])cc1 (stereo not drawn) [Example 170, 2-(4-Aminobutyl)-1,4-dihydro-5-methoxycarbonyl-6-methyl-4-(4-nitrophenyl)-3-{N-[3-(4,4-diphenylpiperidin-1-yl)propyl]}carboxamidopyridine]",,4.9 µM,6.17 µM,0.295 µM,
"CCOC(=O)C1(c2ccccc2)CCN(CCCNC(=O)C2=C(COCCN)NC(CC)=C(C(N)=O)C2c2ccc([N+](=O)[O-])cc2)CC1 (stereo not drawn) [Example 193, 2-[(2-Aminoethoxy)methyl]-5-carboxamido-3-{N-[3-(4-ethoxycarbonyl-4-phenylpiperidin-1-yl)propyl]}carboxamido-1,4-dihydro-6-ethyl-4-(4-nitrophenyl)pyridine]",1.02 µM,,,,"Ki [1, 4]: 0.631 µM; Ki [3, 7]: 2.88 µM"
"COC(=O)C1=C(C)NC(C)=C(C(=O)NCCCN2CCc3cc(OC)c(OC)cc3C2)C1c1ccc([N+](=O)[O-])cc1 (stereo not drawn) [Example 57, 1,4-Dihydro-3-methoxycarbonyl-5-{N-[3-(1,2,3,4-tetrahydro-6,7-dimethoxyisoquinolin-2-yl)propyl]}carboxamido-2,6-dimethyl-4-(4-nitrophenyl)pyridine hydrochloride hydrate]",,,,,"Ki ([1]; [3H]rauwolscine, LM(tk-) cell line L-α2C, SEM and n in lines below, read-out: pKi alpha-2 2c (converted)): 0.158 µM; Ki ([2]; [3H]rauwolscine, LM(tk-) cell line L-α2A, SEM and n in lines below, read-out: pKi alpha-2 2a (converted)): 0.195 µM; Ki ([3]; [3H]prazosin, cloned human receptor in LM(tk-) cell membranes, SEM and n in lines below, read-out: pKi alpha-1 1a (converted)): 1.62 µM"
"CCC1=C(C(=O)NC)C(c2ccc([N+](=O)[O-])cc2)C(C(=O)NCCCN2CCC(C(=O)OC)(c3ccccc3)CC2)=C(CC)N1 (stereo not drawn) [Example 179, 2,6-Diethyl-1,4-dihydro-3-{N-[3-(4-methoxycarbonyl-4-phenyl-piperidin-1-yl)propyl]}carboxamido-5-(N-methyl)carboxamido-4-(4-nitrophenyl)pyridine]",,1.45 µM,3.31 µM,4.17 µM,
CCC1=C(C(N)=O)C(c2ccc([N+](=O)[O-])cc2)C(C(=O)NCCCN2CCC(C(=O)OC)(c3ccccc3)CC2)=C(CC)N1 (stereo not drawn) [Example 200],,1.62 µM,5.5 µM,3.31 µM,
CNC(=O)C1=C(C)NC(C)=C(C(=O)NCCCN2CCC(c3ccccc3)(c3ccccc3)CC2)C1c1ccc2c(c1)OCCO2 (stereo not drawn) [Example 163],1.17 µM,,,,"Ki ([1]; PKi alpha-2 2c, [3H]rauwolscine, human receptor, LM(tk-) cell lysates, mean): 1.23 µM; Ki [3, 6]: 0.776 µM"
"CCC1=C(C(N)=O)C(c2ccc([N+](=O)[O-])cc2)C(C(=O)NC2CCN(CCc3c[nH]c4ccccc34)CC2)=CN1CC (stereo not drawn) [Example 123, 5-Carboxamido-1,6-diethyl-1,4-dihydro-3-(N-{1-[2-(3-indolyl)ethyl]piperidin-4-yl}) carboxamide-4-(4-nitrophenyl)pyridine]",,,,,"pKi alpha-2 2c [1, 8]: 6.42; pKi alpha-2 2a [2, 9]: 6.03; pKi alpha-1 1a [3, 10]: 6.7"
"COC(=O)C1(c2ccccc2)CCN(CCCNC(=O)C2=C(CCCCN)NC(C)=C(C(N)=O)C2c2ccc([N+](=O)[O-])cc2)CC1 (stereo not drawn) [Example 177, 2-(4-Aminobutyl)-5-carboxamido-1,4-dihydro-3-{N-[3-(4-methoxycarbonyl-4-phenylpiperidin-1-yl)propyl]}carboxamido-6-methyl-4-(4-nitrophenyl)pyridine]",,0.832 µM,1.66 µM,1.41 µM,
"CCOC(=O)C1(c2ccccc2)CCN(CCCNC(=O)C2=C(COCCN)NC(CC)=C(C(=O)OC)C2c2ccc([N+](=O)[O-])cc2)CC1 (stereo not drawn) [Example 197, 2-[(2-Aminoethoxy)methyl]-3-{N-[3-(4-ethoxycarbonyl-4-phenylpiperidin-1-yl)propyl]}carboxamido-1,4-dihydro-6-ethyl-5-methoxycarbonyl-4-(4-nitrophenyl) pyridine]",,0.513 µM,1.48 µM,0.251 µM,
"CCNC(=O)C1=C(CC)NC(CC)=C(C(=O)NCCCN2CCC(C(=O)OC)(c3ccccc3)CC2)C1c1ccc([N+](=O)[O-])cc1 (stereo not drawn) [Example 180, 2,6-Diethyl-1,4-dihydro-5-(N-ethyl)carboxamido-3-{N-[3-(4-methoxycarbonyl-4-phenylpiperidin-1-yl)propyl]}carboxamido-4-(4-nitrophenyl)pyridine]",,5.75 µM,6.92 µM,3.02 µM,
"CCOC(=O)C1(c2ccccc2)CCN(CCCNC(=O)C2=C(COCCN)NC(CC)=C(C(=O)NC)C2c2ccc([N+](=O)[O-])cc2)CC1 (stereo not drawn) [Example 194, 2-[(2-Aminoethoxy)methyl]-3-{N-[3-(4-ethoxycarbonyl-4-phenylpiperidin-1-yl)propyl]}carboxamido-1,4-dihydro-6-ethyl-5-(N-methyl) carboxamido-4-(4-nitrophenyl) pyridine]",3.16 µM,,,,"Ki [1, 4]: 1.07 µM; Ki [3, 7]: 4.9 µM"
